In patent EP4553080A1, “NUCLEOSIDE DERIVATIVES AS ANTIVIRAL AGENTS AGAINST CORONAVIRUSES” (Ustav Organicke Chemie a Biochemie AV CR, v.v.i., priority 2023, dated 2025):

Biological target: nsp14 methyltransferase from SARS-CoV-2 (Severe acute respiratory syndrome coronavirus 2, UniProt P0DTD1)
Assay: Nsp14 MTase activity inhibition in vitro (EchoMS assay)
Type: biochemical
Conditions: recombinant nsp14 protein expressed in E. coli; dose-response curve

Structure (SMILES) | IC50 [nM]
COc1ccc(/C=C/c2cn([C@@H]3O[C@H](CSCc4c(C)noc4-c4ccccc4)[C@@H](O)[C@H]3O)c3ncnc(N)c23)cc1 [Compound 182b, (2R,3R,4S,5S)-2-(4-Amino-5-((E)-4-methoxystyryl)-7H-pyrrolo[2,3-d]pyrimidin-7-yl)-5-((((3-methyl-5-phenylisoxazol-4-yl)methyl)thio)methyl)tetrahydrofuran-3,4-diol] | 30 to 100
Cc1scc(-c2ccccc2)c1CSC[C@H]1O[C@@H](n2ccc3c(N)ncnc32)[C@H](O)[C@@H]1O [Compound 52c, (2R,3R,4S,5S)-2-(4-Amino-7H-pyrrolo[2,3-d]pyrimidin-7-yl)-5-((((2-methyl-4-phenylthiophen-3-yl)methyl)thio)methyl)tetrahydrofuran-3,4-diol] | 500 to 2000
Cc1n[nH]c(-c2ccccc2)c1CSC[C@H]1O[C@@H](n2ccc3c(N)ncnc32)[C@H](O)[C@@H]1O [Compound 51c, (2R,3R,4S,5S)-2-(4-Amino-7H-pyrrolo[2,3-d]pyrimidin-7-yl)-5-((((3-methyl-5-phenyl-1H-pyrazol-4-yl)methyl)thio)methyl)tetrahydrofuran-3,4-diol] | 100 to 500
Cc1noc(-c2ccccc2)c1CSC[C@H]1O[C@@H](n2cc(-c3ccco3)c3c(N)ncnc32)[C@H](O)[C@@H]1O [Compound 153] | 30 to 100
Cc1noc(-c2ccccc2)c1CSC[C@H]1O[C@@H](n2cc(CC(C)C)c3c(N)ncnc32)[C@H](O)[C@@H]1O [Compound 131b, (2R,3R,4S,5S)-2-(4-Amino-5-isobutyl-7H-pyrrolo[2,3-d]pyrimidin-7-yl)-5-((((3-methyl-5-phenylisoxazol-4-yl)methyl)thio)methyl)tetrahydrofuran-3,4-diol] | 100 to 500
Cc1nsc(-c2ccccc2)c1CSC[C@H]1O[C@@H](n2ccc3c(N)ncnc32)[C@H](O)[C@@H]1O [Compound 54c, (2R,3R,4S,5S)-2-(4-Amino-7H-pyrrolo[2,3-d]pyrimidin-7-yl)-5-((((3-methyl-5-phenylisothiazol-4-yl)methyl)thio)methyl)tetrahydrofuran-3,4-diol] | 30 to 100
Cc1noc(-c2ccccc2)c1CSC[C@H]1O[C@@H](n2ncc3c(N)ncnc32)[C@H](O)[C@@H]1O [Compound 213, (2R,3R,4S,5S)-2-(4-Amino-1H-pyrazolo[3,4-d]pyrimidin-1-yl)-5-((((3-methyl-5-phenylisoxazol-4-yl)methyl)thio)methyl)tetrahydrofuran-3,4-diol] | 30 to 100
Cc1noc(-c2ccccc2)c1CSC[C@H]1O[C@@H](n2cc(C#Cc3cnc(N)nc3)c3c(N)ncnc32)[C@H](O)[C@@H]1O [Compound 174b, (2R,3R,4S,5S)-2-(4-Amino-5-((2-aminopyrimidin-5-yl)ethynyl)-7H-pyrrolo[2,3-d]pyrimidin-7-yl)-5-((((3-methyl-5-phenylisoxazol-4-yl)methyl)thio)methyl)tetrahydrofuran-3,4-diol] | 30 to 100
Cc1nsc(-c2ccccc2)c1CSC[C@H]1O[C@@H](n2cc(-c3ccc(C#N)cc3)c3c(N)ncnc32)[C@H](O)[C@@H]1O [Compound 231b, 4-(4-Amino-7-((2R,3R,4S,5S)-3,4-dihydroxy-5-((((3-methyl-5-phenylisothiazol-4-yl)methyl)thio)methyl)tetrahydrofuran-2-yl)-7H-pyrrolo[2,3-d]pyrimidin-5-yl)benzonitrile] | 100 to 500
